# Results: PubChem BioAssay (NCI)
#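 In this assay, cells in 96-well plates receive the compound at five concentrations for 48 hours. Endpoints are linearly interpolated between the surrounding concentrations. GI50 is the concentration that inhibits growth by half. The concentration for full growth arrest is given as TGI.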
# Columns and labels:
# Assay in all cases: growth of human tumour cells (NCI), 48 h
# NCI-H23 lung = system: NCI-H23 lung
# NCI-H522 lung = system: NCI-H522 lung
# NCI/ADR-RES ovarian = system: NCI/ADR-RES ovarian
# OVCAR-3 ovarian = system: OVCAR-3 ovarian
# OVCAR-4 ovarian = system: OVCAR-4 ovarian
# OVCAR-5 ovarian = system: OVCAR-5 ovarian
# OVCAR-8 ovarian = system: OVCAR-8 ovarian
# PC-3 prostate = system: PC-3 prostate
# RXF 393 renal = system: RXF 393 renal
# SF-268 CNS = system: SF-268 CNS
# SF-295 CNS = system: SF-295 CNS
# SF-539 CNS = system: SF-539 CNS
# SK-MEL-2 melanoma = system: SK-MEL-2 melanoma
# SK-MEL-28 melanoma = system: SK-MEL-28 melanoma
# SK-MEL-5 melanoma = system: SK-MEL-5 melanoma
# SK-OV-3 ovarian = system: SK-OV-3 ovarian
# SN12C renal = system: SN12C renal
# SNB-19 CNS = system: SNB-19 CNS
# SNB-75 CNS = system: SNB-75 CNS
# SW-620 colon = system: SW-620 colon
# T-47D breast = system: T-47D breast
# TK-10 renal = system: TK-10 renal
# U251 CNS = system: U251 CNS
# UACC-257 melanoma = system: UACC-257 melanoma
# UO-31 renal = system: UO-31 renal
smiles,measurement,setting,value
COc1ccc(Nc2nccc(Nc3ccc4[nH]ncc4c3)n2)cc1,GI50,NCI-H23 lung,2.35 µM
same,TGI,NCI-H23 lung,6.27 µM
same,GI50,NCI-H522 lung,1.86 µM
same,TGI,NCI-H522 lung,4.77 µM
same,GI50,NCI/ADR-RES ovarian,2.18 µM
same,TGI,NCI/ADR-RES ovarian,5.75 µM
same,GI50,OVCAR-3 ovarian,3.15 µM
same,TGI,OVCAR-3 ovarian,10.6 µM
same,GI50,OVCAR-4 ovarian,2.99 µM
same,TGI,OVCAR-4 ovarian,11.8 µM
same,GI50,OVCAR-5 ovarian,3.33 µM
same,TGI,OVCAR-5 ovarian,> 100 µM
same,GI50,OVCAR-8 ovarian,2.24 µM
same,TGI,OVCAR-8 ovarian,5.39 µM
same,GI50,PC-3 prostate,2.21 µM
same,TGI,PC-3 prostate,7.2 µM
same,GI50,RXF 393 renal,1.98 µM
same,TGI,RXF 393 renal,6.45 µM
same,GI50,SF-268 CNS,4.2 µM
same,TGI,SF-268 CNS,28.6 µM
same,GI50,SF-295 CNS,3.78 µM
same,TGI,SF-295 CNS,13.8 µM
same,GI50,SF-539 CNS,4.38 µM
same,TGI,SF-539 CNS,16.8 µM
same,GI50,SK-MEL-2 melanoma,2.4 µM
same,TGI,SK-MEL-2 melanoma,6.39 µM
same,GI50,SK-MEL-28 melanoma,3.64 µM
same,TGI,SK-MEL-28 melanoma,16.5 µM
same,GI50,SK-MEL-5 melanoma,2.01 µM
same,TGI,SK-MEL-5 melanoma,4.75 µM
same,GI50,SK-OV-3 ovarian,7.04 µM
same,TGI,SK-OV-3 ovarian,21.7 µM
same,GI50,SN12C renal,3.92 µM
same,TGI,SN12C renal,> 100 µM
same,GI50,SNB-19 CNS,4.3 µM
same,TGI,SNB-19 CNS,87 µM
same,GI50,SNB-75 CNS,4.58 µM
same,TGI,SNB-75 CNS,20.3 µM
same,GI50,SW-620 colon,3.31 µM
same,TGI,SW-620 colon,> 100 µM
same,GI50,T-47D breast,1.77 µM
same,TGI,T-47D breast,5.42 µM
same,GI50,TK-10 renal,2.45 µM
same,TGI,TK-10 renal,9.55 µM
same,GI50,U251 CNS,3.61 µM
same,TGI,U251 CNS,13.6 µM
same,GI50,UACC-257 melanoma,5.41 µM
same,TGI,UACC-257 melanoma,16.9 µM
same,GI50,UO-31 renal,2.12 µM
same,TGI,UO-31 renal,11.4 µM
